Data on 23 molecules can be found in patent US20240216357A1 (SICHUAN HUIYU PHARMACEUTICAL CO., LTD., priority 2021, published 2024).

Structures can show the parent of a compound that is named as a salt.

The assay has as its target LSD1 (Homo sapiens (Human), UniProt O60341). The assay is described as follows: LSD1 enzyme activity detection (HTRF). Format: biochemical. To be noted: HTRF, H3K4me1 substrate; read-out: Inhibition of enzymatic activity of LSD1 IC50.
Regarding `Cc1noc2cc(-c3sc(C(=O)N4C5CCC4CC(N)C5)cc3-c3cccnc3)c(F)cc12` (centres unmarked) [Example 208, (3-amino-8-azabicyclo [3.2.1]octan-8-yl) (5-(5-fluoro-3-methylbenzo [d]isoxazol-6-yl)-4-(pyridin-3-yl)thiophen-2-yl) methanone hydrochloride], the half-maximal inhibitory concentration (IC50) came to 0.641 µM. For `COc1ccc(-c2cnc(N3C4CCC3CC(N)C4)c(C#N)c2-c2ccc(C#N)c(F)c2)cc1O` (centres unmarked) [Example 81, 2-(3-amino-8-azabicyclo [3.2.1]octane-8-yl)-4-(4-cyano-3-fluorophenyl)-5-(3-hydroxy-4-methoxyphenyl) nicotinonitrile], the half-maximal inhibitory concentration (IC50) was 0.671 µM. The figure for `COc1ccc(-c2c(-c3cnc(C#N)nc3)nc(N3C4CCC3CC(N)C4)n3ccnc23)cc1F` (centres unmarked) [Example 180, 5-(5-(3-amino-8-azabicyclo [3.2.1]octane-8-yl)-8-(3-fluoro-4-methoxyphenyl)imidazolo[1,2-c]pyrimidin-7-yl) pyrimidin-2-carbonitrile] is 0.0771 µM.

Regarding `CS(=O)(=O)N1CCN(c2cc(CN[C@@H]3C[C@H]3c3ccc(F)cc3)nc(-c3ccc(N4CCOCC4)cc3)n2)CC1` [Example 265, (1R,2S)-2-(4-fluorophenyl)-N-((6-(4-(methylsulfonyl)piperazin-1-yl)-2-(4-morpholinophenyl)pyrimidin-4-yl)methyl) cyclopropane-1-amine], the IC50 came to 0.224 µM.

With `COc1ccc(-c2c(O)cc(NC3CCNCC3)nc2-c2ccc(C#N)c(F)c2)cc1F` [Example 40, 2-fluoro-4-(3-(3-fluoro-4-methoxyphenyl)-4-hydroxy-6-(piperidin-4-ylamino)pyridin-2-yl)benzonitrile], the IC50 is 0.28 µM. As for `Cc1ccc(-c2c(-c3ccc(C#N)cc3)cc3c(N4CCCCC4)nccn23)cc1` [Example 191, 4-(1-(piperidin-1-yl)-6-(p-tolyl)pyrrolo[1,2-a]pyrazin-7-yl)benzonitrile], the IC50 came to 0.104 µM. Turning to `COc1ccc(-c2c(C3CCC(C#N)CC3)nc(N3C4CCC3CC(N)C4)n3ccnc23)cc1F` (centres unmarked) [Example 179, 4-(5-(3-amino-8-azadicyclo [3.2.1]octane-8-yl)-8-(3-fluoro-4-methoxyphenyl)imidazolo[1,2-c]pyrimidin-7-yl) cyclohexane-1-carbonitrile hydrochloride], the half-inhibitory concentration (IC50) came to 0.939 µM. In the case of `Cc1noc2cc(-c3sc(C(=O)N4C5CCC4CC(N)C5)cc3-c3ccccc3)c(F)cc12` (centres unmarked) [Example 207, (3-amino-8-azabicyclo [3.2.1]octan-8-yl)(5-(5-fluoro-3-methylbenzo[d]isoxazol-6-yl)-4-phenyithio-phene-2-yl)methanone hydrochloride], the concentration for half-maximal inhibition (IC50) worked out at 1.25 µM. As to `Cc1noc2cc(-c3sc(C(=O)N4C5CCC4CC(N)C5)cc3-c3cncnc3)c(F)cc12` (centres unmarked) [Example 206, (3-amino-8-azabicyclo [3.2.1]octan-8-yl)(5-(5-fluoro-3-methylbenzo[d]isoxazol-6-yl)-4-(pyrimidine-5-yl)thiophen-2-yl) methanone hydrochloride], the half-inhibitory concentration (IC50) worked out at 0.432 µM.

Regarding `Cc1noc2cc(-c3sc(C(=O)N4C5CCC4CC(N)C5)cc3-c3ccc(S(C)(=O)=O)cc3)c(F)cc12` (centres unmarked) [Example 213, (3-amino-8-azabicyclo [3.2.1]octan-8-yl) (5-(5-fluoro-3-methylbenzo [d]isoxazol-6-yl)-4-(4-(methyldimethylsulfoxide-16-sulfonyl)phenyl)thio-phen-2-yl)methanone], the IC50 is 0.0367 µM.

Take `N#Cc1ccc(-c2nc(N3CCC(N)CC3)cc(O)c2-c2ccc3c(c2)OC(F)(F)O3)cc1F` [Example 30, 4-(6-(4-aminopiperidin-1-yl)-3-(2,2-difluorobenzo[d][1,3]dioxol-5-yl)-4-hydroxypyridin-2-yl)-2-fluorobenzonitrile hydrochloride]: the half-maximal inhibitory concentration (IC50) was 0.213 µM. As to `COc1ccc(-c2cc(N3CCC(N)CC3)nc(-c3ccc(C#N)c(F)c3)c2OC)cc1F` [Example 102, 4-(6-(4-aminopiperidin-1-yl)-4-(3-fluoro-4-methoxyphenyl)-3-methoxypyridin-2-yl)-2-fluoroben zonitrile], the IC50 stood at 0.712 µM.

As for `Cc1noc2cc(-c3sc(C(=O)N4C5CCC4CC(N)C5)cc3-c3ccc4cn[nH]c4c3)c(F)cc12` (centres unmarked) [Example 205, (3-amino-8-azabicyclo [3.2.1]octane-8-yl) (5-(5-fluoro-3-methylbenzo[d]isoxazol-6-yl)-4-(1H-indazol-6-yl)thiophen-2-yl)methanone hydrochloride], the concentration for half-maximal inhibition (IC50) was 0.902 µM. As to `CC(C)(O)Cn1ncc2cc(F)c(-c3c(O)cc(N4CCC(N)CC4)nc3-c3ccc(C#N)c(F)c3)cc21` [Example 28, hydrochloride], the IC50 was 0.441 µM. On to `COc1ccc(-c2c(O)cc(N3CCC(N)CC3)nc2-c2ccc(C#N)c(F)c2)cc1OC` [Example 33, 4-(6-(4-aminopiperidin-1-yl)-3-(3,4-dimethoxyphenyl)-4-hydroxypyridin-2-yl)-2-fluorobenzonitrile hydrochloride], for which the IC50 was found to be 0.21 µM. With `COc1ccc(-c2cnc(N3C4CCCC3CC(N)C4)c(C#N)c2-c2ccc(C#N)c(F)c2)cc1O` (centres unmarked) [Example 75, 2-(3-amino-9-azabicyclo [3.3.1]nonan-9-yl)-4-(4-cyano-3-fluorophenyl)-5-(3-hydroxy-4-methoxyphenyl) nicotinonitrile] the figure was 0.5 µM; with `Cc1noc2cc(-c3sc(C(=O)N4C5CCC4CC(N)C5)cc3-c3ccc(S(N)(=O)=O)cc3)c(F)cc12` (centres unmarked) [Example 212, 4-(5-(3-amino-8-azabicyclo [3.2.1]octane-8-carbonyl)-2-(5-fluoro-3-methyl-benzo[d]isoxazol-6-yl)thiophen-3-yl)benzene-sulfonamide], 0.207 µM; with `COc1ccc(-c2cnc(N3CC4CCC(C3)C4N)c(C#N)c2-c2ccc(C#N)c(F)c2)cc1O` (centres unmarked) [Example 74, 2-(8-amino-3-azabicyclo[3.2.1]octane-3-yl)-4-(4-cyano-3-fluorophenyl)-5-(3-hydroxy-4-methoxyphenyl) nicotinonitrile], 0.166 µM. As for `COc1ccc(-c2c(-c3ccc(C#N)c(C)c3)nc(N3C4CCC3CC(N)C4)n3ccnc23)cc1F` (centres unmarked) [Example 184, 4-(5-(3-amino-8-azabicyclo[3.2.1]octane-8-yl)-8-(3-fluoro-4-methoxyphenyl)imidazolo[1,2-c]pyrimidin-7-yl)-2-methylbenzonitrile hydrochloride], the 50% inhibitory concentration (IC50) worked out at 0.111 µM. With `COc1cc(-c2c(-c3ccc(C#N)c(F)c3)nc(N3CCC(N)CC3)n3ccnc23)ccc1O` [Example 141, 4-(5-(4-aminopiperidin-1-yl)-8-(4-hydroxy-3-methoxyphenyl)imidazolo[1,2-c]pyrimidin-7-yl)-2-fluorobenzonitrile formate] the figure was 0.224 µM; with `Cc1noc2cc(-c3sc(C(=O)N4C5CCC4CC(N)C5)cc3-c3ncccn3)c(F)cc12` (centres unmarked) [Example 211], 0.206 µM; with `Cc1noc2cc(-c3c(OCc4ccccc4)cc(N4C5CCC4CC(N)C5)nc3-c3ccc(C#N)c(F)c3)c(F)cc12` (centres unmarked) [Example 88, 4-(6-(3-amino-8-azabicyclo [3.2.1]octane-8-yl)-4-(benzyloxy)-3-(5-fluoro-3-methylbenzo[d]isoxazol-6-yl)pyridin-2-yl)-2-fluorobenzonitrile], 0.566 µM. For `Cc1ccc(-c2c(-c3ccc(C#N)cc3)cc3c(N4CCC(N)CC4)ccnn23)cc1` [Example 198, hydrochloride], the IC50 was found to be 0.174 µM.
